SMILES strings stand for the structures. “Also recorded” adds a separate entry of the source. Where two headings read alike, the source gives them in different places.

These results are taken from paper PMC11423305, “Structure-Based Design of CBP/EP300 Degraders: When Cooperativity Overcomes Affinity” (JACS Au, 2024).

The test system of assay [1] is LNCaP cells. Description: Cell viability (resazurin), LNCaP. The class given is cell-based. The settings on record: 3 day treatment. The procedure: normalized to DMSO treated lanes on the same membrane. (Several compounds were
measured at the same time, so DMSO treated lanes are replicated here between
Figure S5. Anti-proliferation in additional cell lines. LNCaP (A and C) and SH-SY5Y (B)
cell viability following 3 day compound treatment, and LNCaP following 6 day treatment
(D), determined using resazurin.
After 3 days of treatment, dCE-2 only has a mild effect on the proliferation of LNCaP and
SH-SY5Y cells (Figure S5A and B).
the new CBP/EP300 PROTACs CBPD -268 and CBPD-4092,3 which have enhanced anti-
proliferative activity in LNcaP cells relative to their parent inhibitor s. However, although
these PROTACs have effects at very low concentrations, their effect plateaus and a
substantial proportion of cells remain viable at high compound concentrations. Similarly,
degradation of CBP and EP300, the maximal effect of this PROTAC is also limited under
the conditions we used (Figure S5C). Through this work it was clear to us that these […]
proliferation. […]
concentrations of CRBN, as determined through competition with acetylated peptide […]
Fluorescence (excitation = 560 nm, emission = 590 nm) was measured using a
spectraMax M5 microplate reader (Molecular Devices) and cell viability was calculated […]
values were calculated as the concentration required to inhibit cell viability to 50 % […]
(In general: The colour change of resazurin is a common sign of viable cells or microbes.)

Assay [2] has as its target CBP-BRD (Homo sapiens, UniProt Q92793). Description: TR-FRET competition with acetylated peptide binding to CBP-BRD, with and without CRBN (cooperativity). Also on record: GST-CBP (human, residues 1081-1197); made in house; host or cells: Rosetta (DE3) cells (E. coli). On the technique in general: Time-resolved FRET reads energy transfer from a long-lived donor to a nearby acceptor.

For orientation: IC50 means the concentration that gives 50% inhibition. In the case of `Cc1cc2c(NC(=O)c3cc(NC(=O)CCCCCCCCCCNc4cccc5c4C(=O)N(C4CCC(=O)NC4=O)C5=O)cc(-c4ccn(C)n4)c3)cccc2nn1` (stereo not drawn) [dCE-2], the “effect on proliferation of LNCaP cells” value in assay [1] is “mild effect; also recorded: limited effect”. Besides, the IC50 in assay [2] (absence of CRBN, read-out: CBP-BRD IC50 (binary, IC50[control])) is 150 nM; in assay [2] (presence of high concentrations of CRBN C-terminal thalidomide binding domain, read-out: ternary IC50 (IC50[CRBN])), 45 nM.
